Key:
[1] = system: micro-capillary blood flow to skin; assay: Laser Doppler study with closed Hilltop chamber on forearm, Example 5; type: in vivo, human; details: applied to the skin at 1/10% in alcohol
Description: The formulation used in these studies contained nitric oxide dispersed in a lipid matrix. […] Nitric oxide is a very rapid acting molecule, and these studies used a system that employed laser Doppler with a covered chamber. The formulation was placed into the chamber and then attached to the skin by an adhesive layer on the covering. This provided a stable measuring device as determined by multiple normal evaluations of the capillary blood flow without treatment of nitric oxide.
A known positive control, methyl nicotinate, was applied to the skin at a concentration of 1/10% in alcohol. […] The vascular dynamics are such that when the blood vessels dilate physical parameters follow Bernoulli's law. […] The laser Doppler device accurately measured these parameters.
In these studies, the participants were healthy females aged 30 to 55 years. They were in good health as determined by the medical history and were not taking any prescription medications. All study participants read and signed the informed consent statement prior to any study procedures being performed. […]
A Moor Instruments DRT4 Laser Doppler Blood Flow Monitor (Devon, England) was used in these studies. The laser Doppler technique measured blood flow in the microcapillaries of the skin that are close to the skin surface and the blood flow in underlying arterioles and venules that help to regulate skin temperature. […]

[2] = system: capillary circulation of the skin; assay: Laser Doppler study of creams in five human subjects, Example 7; type: in vivo; details: positive control formulation, 0.1% methyl nicotinate
Description: This example illustrates delivery of nitric oxide formulations to five human subjects, using procedures and formulations similar to those discussed in Example 5. Each person served as their own control for the testing. A Moor Instruments Laser Doppler was used to determine circulation. […] The formulations used produce positive, almost immediate results when applied to the skin which, in these studies, was manifested by vasodilatation of the cutaneous vascular system.
For each subject, the following creams were applied: a negative control formulation (containing no NO), 0.010 gram of a 10,000 ppm NO formulation, 0.020 gram of a 10,000 ppm NO formulation, and a positive control formulation containing 0.1% methyl nicotinate. The formulations were prepared using procedures similar to those discussed in Example 1.

SMILES: COC(=O)c1cccnc1 [methyl nicotinate]
- laser Doppler response of positive control [1]: rapid response typical of the vasodilator
- vasodilatation (laser Doppler) [2]: vasodilatation was observed
